Assay results taken from patent US20250002526A1, “PHARMACEUTICAL COMPOSITION HAVING ANTI-CANCER IMMUNOSTIMULATING EFFECT AND/OR IMMUNE CHECKPOINT INHIBITION POTENTIATING EFFECT” (KYUSHU UNIVERSITY, NATIONAL UNIVERSITY CORPORATION, priority 2021, published 2025).
Structures can show the parent of a compound that is named as a salt. Where two headings read alike, the source gives them in different places.

Tested on: SULT2B1b-mediated CS production in E0771-SULT cells
Assay: CS production inhibitory effect in E0771-SULT cells (LC/MS/MS quantification of CS)
Assay type: cell-based, mouse
Details: for activity at 10 µM: relative to control (100%); for IC50: read-out: IC50 value (CS production)
Method: CS in each human cancer tissue sample was quantified by a method described in NPL 2. To monitor the amounts of CS and/or oxysterol generated in E0771, 3LL, EG.7-OVA, and MC38 cells irrespective of the presence or absence of SULT2B1b expression, cells of each type were seeded in a 6-well plate at 5×10^5 cells/well, and the culture supernatant and cell pellet were collected after 24 hours. Subsequently, deuterium-labeled internal standard (IS) compounds (d7-CS [[…]] and d6-25-hydroxycholesterol) were added to fractions of the culture supernatant and cell pellet, each of which was subjected to extraction with 1 mL of extraction solvent (methanol/chloroform/water=5:2:2 [v/v/v]) to extract CS and oxysterol from the culture supernatant or cell pellet.
Each sample was vigorously mixed with a vortex for 1 minute, and then ultrasonicated for 5 minutes. Thereafter, the sample was centrifuged at 16,000×g and 4° C. for 5 minutes, and the supernatant (700 μl) was collected in a clean tube. Into this, 235 μl of chloroform and 155 μl of water were added and mixed, and the resultant was then subjected to vortexing followed by centrifugation to separate into an aqueous layer and an organic layer. Subsequently, 200 μl of the lowermost layer was dried under a nitrogen flow.
The dried sample was dissolved in 50 μl of methanol, and CS and oxysterol therein were quantified by liquid chromatography-tandem mass spectrometry (LC/MS/MS) with a triple quadrupole mass spectrometer (LCMS-8060; Shimadzu Corporation) equipped with an electrospray ionization (ESI) ion source in a multiple reaction monitoring (MRM) mode.
• Column: Inertsil ODS-4 (2.1×150 mm; particle size: 3 μm; GL Sciences Inc.) • Column temperature: 40° C. • Flow rate: 0.3 ml/min • Mobile phase: (A) water/acetonitrile (1:2, v/v) containing 5 mM ammonium acetate (B) Methanol/Isopropanol (1:19, v/v) Containing 5 mM Ammonium Acetate • Gradient curve: 0 min→22 min: (B) 0%→100%, • 22 min→27 min: (B) 100%, • 27 min→27.1 min: (B) 100%→0%, • 27.1 min→30 min: (B) 0% • Injection volume: 5 μl • Mass spectrometry mode: positive and negative ion modes • Electrospray voltage: 4 kV in positive ion mode, −3.5 kV in negative ion mode • Nebulizer gas flow rate: 3.0 L/min • Drying gas flow rate: 10.0 L/min • Desolvation temperature: 250° C. • Heat block temperature: 400° C. • Detector voltage: 2.16 kV • Used were MRM mode and 2 msec of dwell time per channel.
Absolute CS and oxysterol contents were calculated from calibration curves. MRM calibration curves were prepared with chromatographic peak areas for the analytes relative to peak areas for internal standards through three times of analysis for standard solutions.
The CS production effects of test compounds (compounds 1 to 19, 21, 23, 25, and 27 to 32) were evaluated with the mouse breast cancer cell line E0771 expressing SULT2B1b (E0771-SULT cells).
Specifically, as in the above description in experimental procedure (12), E0771-SULT cells were seeded in a 6-well plate at a proportion of 5×10^5 cells/well, and cultured in the presence or absence (control) of each test compound for 24 hours. After culturing, CS generated in E0771-SULT cells was quantified by LC/MS/MS according to the description in experimental procedure (12). The CS production capacity (% activity) of cells cultured in the presence of each test compound was evaluated from the percentage relative to the CS production level (control) (100%) in E0771-SULT cells cultured in the absence of the test compound, and the CS production inhibitory effect of the test compound was evaluated.

[1] = Mus musculus, 24 h, read-out: CS production % activity at 10 μM, E0771-SULT cells, 24 hours, test compound 10 μM (Table 1)
[2] = Mus musculus, 24 h, read-out: CS production % activity at 10 μM, E0771-SULT cells, 24 hours, third concentration column of Table 1, head again printed 10 μM
[3] = Mus musculus, 24 h, read-out: CS production % activity at 20 μM, E0771-SULT cells, 24 hours, test compound 20 μM, relative to control without compound (100%)
[4] = Mus musculus, 24 h, E0771-SULT cells, 24 hours, test compound 20 μM, relative to control without compound (100%), read-out: CS production % activity at 20 μM

For `C[C@H](CCC(=O)O)[C@H]1CC[C@H]2[C@@H]3CC=C4C[C@@H](OC(=O)C(F)(F)F)CC[C@]4(C)[C@H]3CC[C@]12C` [Compound 2, (R)-4-((3S,8S,9S,10R,13R,14S,17R)-10,13-dimethyl-3-(2,2,2-trifluoroacetoxy)-2,3,4,7,8,9,10,11,12,13,14,15,16,17-tetradecahydro-1H-cyclopenta[a]phenanthren-17-yl)pentanoic acid], the activity at 10 µM [1] was 34%, the activity at 10 µM [2] was 52.5% and the activity at 20 µM [3] was 36.8%. The IC50 (Mus musculus) was 6 µM.

Molecule `COC(=O)CC[C@@H](C)[C@H]1CC[C@H]2[C@@H]3CC=C4C[C@@H](OC)CC[C@]4(C)[C@H]3CC[C@]12C` [Compound 5, methyl (R)-4-((3S,8S,9S,10R,13R,14S,17R)-3-methoxy-10,13-dimethyl-2,3,4,7,8,9,10,11,12,13,14,15,16,17-tetradecahydro-1H-cyclopenta[a]phenanthren-17-yl)pentanoate] has an activity at 20 µM [4] of 92.3%.

For `CC(CCC(=O)N1CCSCC1)C1CCC2C3CC=C4CC(O)CCC4(C)C3CCC12C` [Compound 9, (R)-4-((3S,8S,9S,10R,13R,14S,17R)-3-hydroxy-10,13-dimethyl-2,3,4,7,8,9,10,11,12,13,14,15,16,17-tetradecahydro-1H-cyclopenta[a]phenanthren-17-yl)-1-thiomorpholinopentan-1-one], the activity at 20 µM [3] was 87.2%.

`C[C@H](CCC(=O)N1CCOCC1)[C@H]1CC[C@H]2[C@@H]3CC=C4C[C@@H](O)CC[C@]4(C)[C@H]3CC[C@]12C` [Compound 11, (R)-4-((3S,8S,9S,10R,13R,14S,17R)-3-hydroxy-10,13-dimethyl-2,3,4,7,8,9,10,11,12,13,14,15,16,17-tetradecahydro-1H-cyclopenta[a]phenanthren-17-yl)-1-morpholinopentan-1-one] was tested, and the activity at 20 µM [3] was 87.4%.

With `C[C@H](CCC(=O)N1CCOCC1)[C@H]1CC[C@H]2[C@@H]3CC=C4C[C@H](n5cc(CN(C)C)nn5)CC[C@]4(C)[C@H]3CC[C@]12C` [Compound 13, (R)-4-((3R,8S,9S,10R,13R,14S,17R)-3-(4-((dimethylamino)methyl)-1H-1,2,3-triazol-1-yl)-10,13-dimethyl-2,3,4,7,8,9,10,11,12,13,14,15,16,17-tetradecahydro-1H-cyclopenta[a]phenanthren-17-yl)-1-morpholinopentan-1-one] the activity at 20 µM [3] was 65.8%.

With `C[C@H](CCC(=O)O)[C@H]1CC[C@H]2[C@@H]3CC[C@@H]4C[C@H](O)CC[C@]4(C)[C@H]3CC[C@]12C` [Compound 14, (4R)-4-[(3R,5R,8R,9S,10S,13R,14S,17R)-3-hydroxy-10,13-dimethyl-2,3,4,5,6,7,8,9,11,12,14,15,16,17-tetradecahydro-1H-cyclopenta[a]phenanthren-17-yl]pentanoic acid] the activity at 20 µM (Mus musculus, E0771-SULT cells, 24 hours, test compound 20 μM, relative to control without compound (100%), read-out: CS production % activity at 20 μM) was 31.5%, the activity at 10 µM (Mus musculus, E0771-SULT cells, 24 hours, third concentration column of Table 1, head again printed 10 μM, read-out: CS production % activity at 10 μM) was 62% and the IC50 (Mus musculus, E0771-SULT cells) was 7.2 µM.

`CC(=O)C1=CC[C@H]2[C@@H]3CC=C4CC(OC(=O)CCN5CCOCC5)CC[C@]4(C)[C@H]3CC[C@]12C` (stereo partly drawn) [Compound 15, (8R,9S,10R,13S,14S)-17-acetyl-10,13-dimethyl-2,3,4,7,8,9,10,11,12,13,14,15-dodecahydro-1H-cyclopenta[a]phenanthren-3-yl3-morpholinopropanoate] showed an activity at 10 µM [1] of 40.9%, an activity at 10 µM [2] of 63% and an activity at 20 µM [3] of 38.9%. The IC50 (Mus musculus) was 7.8 µM.

`CC(=O)C1=CC[C@H]2[C@@H]3CC[C@H]4C[C@H](OC(=O)CCN5CCOCC5)CC[C@]4(C)[C@H]3CC[C@]12C` [Compound 16, (3R,5S,8R,9S,10S,13S,14S)-17-acetyl-10,13-dimethyl-2,3,4,5,6,7,8,9,10,11,12,13,14,15-tetradecahydro-1H-cyclopenta[a]phenanthren-3-yl3-morpholinopropanoate] gave an activity at 10 µM [1] of 49.9%, an activity at 10 µM [2] of 55.7% and an activity at 20 µM [3] of 42.3%. The IC50 (Mus musculus) was 9.6 µM.

`COC(=O)C1CCCN1C(=O)CCC(=O)OCC(=O)C1(OC(C)=O)CCC2C3CCC4=CC(=O)CCC4(C)C3CCC21C` [Compound 18, methyl (4-(2-8((8R,9S,10R,13S,14S,17R)-17-acetoxy-10,13-dimethyl-3-oxo-2,3,6,7,8,9,10,11,12,13,14,15,16,17-tetradecahydro-1H-cyclopenta[a]phenanthren-17-yl)-2-oxoethoxy)-4-oxobutanoyl)-L-prolinate] was tested, and the activity at 10 µM [1] was 60.6%, the activity at 10 µM [2] was 71.7% and the activity at 20 µM [3] was 54.8%. For the same molecule, the IC50 (Mus musculus) was 16 µM.

In the case of `C#CCOCCNC(=O)CC[C@@H](C)[C@H]1CC[C@H]2[C@@H]3CC=C4C[C@@H](OS(=O)(=O)O)CC[C@]4(C)[C@H]3CC[C@]12C` [Compound 21, (3S,8S,9S,10R,13R,14S,17R)-10,13-dimethyl-17-((R)-5-oxo-5-((2-(prop-2-yn-1-yloxy)ethyl)amino)pentan-2-yl)-2,3,4,7,8,9,10,11,12,13,14,15,16,17-tetradecahydro-1H-cyclopenta[a]phenanthren-3-yl sulfate], the activity at 20 µM [3] is reported as 85.7%.

For `C#CCOCCOCCNC(=O)CC[C@@H](C)[C@H]1CC[C@H]2[C@@H]3CC=C4C[C@@H](OS(=O)(=O)O)CC[C@]4(C)[C@H]3CC[C@]12C` [Compound 23, (3S,8S,9S,10R,13R,14S,17R)-10,13-dimethyl-17-((R)-5-oxo-5-((2-(2-(prop-2-yn-1-yloxy)ethoxy)ethyl)amino)pentan-2-yl)-2,3,4,7,8,9,10,11,12,13,14,15,16,17-tetradecahydro-1H-cyclopenta[a]phenanthren-3-yl sulfate], the activity at 20 µM [3] was 70.1%.

With `C#CCOCCOCCOCCOCCNC(=O)CC[C@@H](C)[C@H]1CC[C@H]2[C@@H]3CC=C4C[C@@H](OS(=O)(=O)O)CC[C@]4(C)[C@H]3CC[C@]12C` [Compound 25, (3S,8S,9S,10R,13R,14S,17R)-10,13-dimethyl-17-((R)-17-oxo-4,7,10,13-tetraoxa-16-azahenicos-1-yn-20-yl)-2,3,4,7,8,9,10,11,12,13,14,15,16,17-tetradecahydro-1H-cyclopenta[a]phenanthren-3-yl sulfate] the activity at 20 µM [3] was 60.1%.

With `C#CCOCCOCCOCCOCCOCCOCCNC(=O)CC[C@@H](C)[C@H]1CC[C@H]2[C@@H]3CC=C4C[C@@H](OS(=O)(=O)O)CC[C@]4(C)[C@H]3CC[C@]12C` [Compound 27, (3S,8S,9S,10R,13R,14S,17R)-10,13-dimethyl-17-((R)-23-oxa-4,7,10,13,16,19-hexaoxa-22-azaheptacos-1-yn-26-yl)-2,3,4,7,8,9,10,11,12,13,14,15,16,17-tetradecahydro-1H-cyclopenta[a]phenanthren-3-yl sulfate] the “CS production % activity at 20 μM” value (E0771-SULT cells, 24 hours, test compound 20 μM, relative to control without compound (100%)) was 59.0%.

For `C[C@]12CCC(OC(=O)CCN3CCOCC3)CC1=CC[C@@H]1[C@@H]2CC[C@]2(C)C(=O)CC[C@@H]12` (stereo partly drawn) [Compound 28, (8R,9S,10R,13S,14S)-10,13-dimethyl-17-oxo-2,3,4,7,8,9,10,11,12,13,14,15,16,17-tetradecahydro-1H-cyclopenta[a]phenanthren-3-yl 3-morpholinopropanoate], the activity at 20 µM [4] was 42%, the activity at 1 µM (Mus musculus, 24 h, E0771-SULT cells, 24 hours, compound groups B-D, 1 μM, read-out: CS production % activity at 1 μM) was 37.8% and the IC50 (Mus musculus, E0771-SULT cells) was 6.3 µM.
